Read-outs that look alike come from different tables or passages of the source.
Tested on: red cyst cells of Haematococcus pluvialis (Strain 2)
Procedure: The calculated concentrations of the hydrogen peroxide doses tested were 0.0105, 0.0140, 0.0175, 0.0210, and 0.0245 mL/L. The amount of cell lysis was quantified using visual observation under a microscope after 24, 48, and 72 hours.

## hydrogen peroxide [H2O2]
0.0140 mL/L three times per day, 24 h
  % Cell lysis (±1SE): 1.7% ± 1.0%
0.0140 mL/L three times per day, 48 h
  % Cell lysis (±1SE): 0.8% ± 0.8%
0.0140 mL/L three times per day, 72 h
  % Cell lysis (±1SE): 3.3% ± 0.0%
0.0140 mL/L three times per day, 96 h
  % Cell lysis (±1SE): 3.3% ± 1.7%
0.0175 mL/L three times per day, 24 h
  % Cell lysis (±1SE): 1.1% ± 0.6%
0.0175 mL/L three times per day, 48 h
  % Cell lysis (±1SE): 3.3% ± 1.7%
0.0175 mL/L three times per day, 72 h
  % Cell lysis (±1SE): 5.8% ± 5.8%
0.0175 mL/L three times per day, 96 h
  % Cell lysis (±1SE): 5.8% ± 2.5%
0.0210 mL/L three times per day, 24 h
  % Cell lysis (±1SE): 3.9% ± 2.0%
0.0210 mL/L three times per day, 48 h
  % Cell lysis (±1SE): 0.8% ± 0.8%
0.0210 mL/L three times per day, 72 h
  % Cell lysis (±1SE): 1.7% ± 0.0%
0.0210 mL/L three times per day, 96 h
  % Cell lysis (±1SE): 18.3% ± 1.7%
0.0245 mL/L three times per day, 24 h
  % Cell lysis (±1SE): 3.9% ± 0.6%
0.0245 mL/L three times per day, 48 h
  % Cell lysis (±1SE): 5.0% ± 1.7%
0.0245 mL/L three times per day, 72 h
  % Cell lysis (±1SE): 9.2% ± 0.8%
0.0245 mL/L three times per day, 96 h
  % Cell lysis (±1SE): 51.7% ± 5.0%
Dosages at or above 0.0175 mL/L, after 48-96 hours
  cell lysis level: above 10%
Dosages below 0.0175 mL/L, for at least 96 hours
  cell lysis level: below 10%

From patent US20160281050A1, “METHODS FOR TREATING A CULTURE OF HAEMATOCOCCUS PLUVIALIS FOR CONTAMINATION USING SALT AND HYDROGEN PEROXIDE” (HELIAE DEVELOPMENT LLC, priority 2015, published 2016)
